Where “and” joins values, the source holds several entries; their conditions need not be identical. Identical values can stand only once. Calls of active or inactive are those of the source.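 Rule for the calls: active = median TrxR activity remaining at the top dose below 80%; inactive = the rest.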
Target: Thioredoxin reductase 1, cytoplasmic (Rattus norvegicus) (UniProt O89049)
Test: Trx/TrxR/NADPH system inhibitors, dose response, counter-screen for PDI inhibitor project, biochemical, rat TrxR1, insulin turbidity, dry powder (AID 652269)
Conditions: Trx/TrxR/NADPH insulin reduction, turbidity OD650; for TrxR activity remaining % (active compounds read low): at 33.3 µM

Compound | TrxR activity remaining % (active compounds read low) | outcome
CCOC(=O)C1(CCOc2ccccc2)CCN(Cc2ccc(O)cc2)CC1 | 100% (inactive) | –
CCOC(=O)C1(CCOc2ccccc2)CCN(Cc2ccc(OC)c(Cl)c2)CC1 | 100% (inactive) | –
O=C(Nc1ccccc1)C1(CCOc2ccccc2)CCN(Cc2ccc(O)c(Cl)c2)CC1 | – | inactive
CC(C)(C)OC(=O)C1(CCOc2ccccc2)CCN(Cc2ccc(O)c(Cl)c2)CC1 | 100% (inactive) | –
CCOC(=O)C1(CCOc2ccccc2)CCN(C(=O)c2ccc(O)c(Cl)c2)CC1 | 100% (inactive) | –
CC(C)OC(=O)C1(CCOc2ccccc2)CCN(Cc2ccc(O)c(Cl)c2)CC1 | 100% (inactive) | –
CCOC(=O)c1c(CN2CCN(CCO)CC2)n(-c2ccccc2)c2cc(Br)c(O)cc12 | 100% (inactive) | –

Next, values leading:

TrxR activity remaining % (active compounds read low) | outcome | Compound
97% (inactive) | – | C/C1=C\C[C@H](OC(=O)c2ccc(O)cc2)/C(C)=C/[C@@H](O)C(C)(C)CCC1
100% (inactive) | – | O=C(NC1CCCC1)C1(CCOc2ccccc2)CCN(Cc2ccc(O)c(Cl)c2)CC1
100% (inactive) and 94% (inactive) | – | CCOC(=O)C1(CCOc2ccccc2)CCN(Cc2ccc(O)c(Cl)c2)CC1

Source: PubChem BioAssay AID652269 (Broad Institute, 2013)
